# Source: ChEMBL document CHEMBL4680085 (J Med Chem, 2016)
# Active and inactive are the calls of the source. No cut-off for these calls is given here.
# Target: T1, Nuclear factor erythroid 2-related factor 2 (Homo sapiens) (UniProt Q16236)
# T1 sequence (whole entry): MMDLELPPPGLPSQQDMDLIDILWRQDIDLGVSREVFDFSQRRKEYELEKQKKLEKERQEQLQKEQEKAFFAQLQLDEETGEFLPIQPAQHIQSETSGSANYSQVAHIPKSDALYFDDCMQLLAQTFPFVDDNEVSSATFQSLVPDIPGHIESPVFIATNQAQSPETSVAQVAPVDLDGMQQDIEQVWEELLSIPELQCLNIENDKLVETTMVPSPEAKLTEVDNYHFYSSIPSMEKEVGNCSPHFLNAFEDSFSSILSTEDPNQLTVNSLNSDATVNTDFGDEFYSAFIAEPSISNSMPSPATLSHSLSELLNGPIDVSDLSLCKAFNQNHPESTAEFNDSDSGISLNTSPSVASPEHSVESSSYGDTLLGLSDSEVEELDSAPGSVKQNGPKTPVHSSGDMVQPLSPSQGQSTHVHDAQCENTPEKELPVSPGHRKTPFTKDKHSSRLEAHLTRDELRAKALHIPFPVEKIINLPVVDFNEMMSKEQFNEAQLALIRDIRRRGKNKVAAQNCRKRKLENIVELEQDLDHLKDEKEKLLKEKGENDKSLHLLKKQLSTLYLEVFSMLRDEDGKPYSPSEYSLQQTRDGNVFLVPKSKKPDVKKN
# Test: Activation of NRF2 in human MCF-7/AREc32 cells at 3 uM incubated for 24 hrs by luciferase reporter gene assay
# Format: cell-based
# Conditions: MCF7, filed as activator
row,SMILES,Activity
1,COc1ccc2nc3c(c(NCCCCCCCCN(CC(=O)NCCc4c[nH]c5ccc(OC)cc45)C(=O)/C=C/c4ccc(O)c(OC)c4)c2c1)CCCC3,Active

# Tested on: SH-SY5Y
# Test: Neuroprotection in human SH-SY5Y cells assessed as reduction in beta-amyloid peptide (1-42)-induced cell death at 3 uM incubated for 24 hrs by MTT assay
# Format: functional
# Set-up: scale not given: the % may be the effect or the level left
# Conditions: not given
row,SMILES,Activity
1,COc1ccc2nc3c(c(NCCCCCCN(CC(=O)NCCc4c[nH]c5ccc(OC)cc45)C(=O)/C=C/c4ccc(O)c(OC)c4)c2c1)CCCC3,50.2%
2,COC(=O)/C=C/c1ccc(O)c(OC)c1,inactive
3,COc1ccc2nc3c(c(NCCCCCCCCN(CC(=O)NCCc4c[nH]c5ccc(OC)cc45)C(=O)/C=C/c4ccc(O)c(OC)c4)c2c1)CCCC3,78.9%

# Target: T1, Nuclear factor erythroid 2-related factor 2 (Homo sapiens)
# Test: Activation of NRF2 in human MCF-7/AREc32 cells at 10 to 30 uM incubated for 24 hrs by luciferase reporter gene assay
# Format: cell-based
# Conditions: MCF7, filed as activator, dose 10-30 µM
row,SMILES,Activity
1,COc1ccc2nc3c(c(NCCCCCCCCN(CC(=O)NCCc4c[nH]c5ccc(OC)cc45)C(=O)/C=C/c4ccc(O)c(OC)c4)c2c1)CCCC3,Active

# Target: Acetylcholinesterase (Homo sapiens, UniProt P22303)
# Sequence (P22303 whole entry): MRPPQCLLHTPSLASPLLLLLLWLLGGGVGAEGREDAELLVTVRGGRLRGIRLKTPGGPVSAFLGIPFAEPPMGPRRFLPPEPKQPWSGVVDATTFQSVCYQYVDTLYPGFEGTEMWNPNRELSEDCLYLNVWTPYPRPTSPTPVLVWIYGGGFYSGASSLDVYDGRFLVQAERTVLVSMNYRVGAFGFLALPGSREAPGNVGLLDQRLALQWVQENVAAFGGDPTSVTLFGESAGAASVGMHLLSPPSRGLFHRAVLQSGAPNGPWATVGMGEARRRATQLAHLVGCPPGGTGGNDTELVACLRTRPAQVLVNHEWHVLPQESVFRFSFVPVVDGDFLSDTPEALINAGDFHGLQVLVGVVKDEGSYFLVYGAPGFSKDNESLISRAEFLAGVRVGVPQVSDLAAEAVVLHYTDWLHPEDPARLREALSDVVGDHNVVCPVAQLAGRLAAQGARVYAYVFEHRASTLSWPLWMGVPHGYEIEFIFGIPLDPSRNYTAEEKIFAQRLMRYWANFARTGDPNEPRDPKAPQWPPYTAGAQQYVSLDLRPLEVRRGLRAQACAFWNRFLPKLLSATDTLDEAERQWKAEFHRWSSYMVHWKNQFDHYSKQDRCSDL
# Test: Inhibition of AChE in human erythrocyte hemo-lyzates pre-incubated for 5 mins before addition of acetylthiocholine iodide substrate by Ellman's method
# Format: tissue-based
# Conditions: not given
row,SMILES,IC50 [µM]
1,COc1ccc2nc3c(c(NCCCCCCN(CC(=O)NCCc4c[nH]c5ccc(OC)cc45)C(=O)/C=C/c4ccc(O)c(OC)c4)c2c1)CCCC3,> 10
2,COc1ccc2nc3c(c(NCCCCCCCCN(CC(=O)NCCc4c[nH]c5ccc(OC)cc45)C(=O)/C=C/c4ccc(O)c(OC)c4)c2c1)CCCC3,> 10

# Target: Cholinesterase (Equus caballus, UniProt P81908)
# Sequence (P81908 whole entry): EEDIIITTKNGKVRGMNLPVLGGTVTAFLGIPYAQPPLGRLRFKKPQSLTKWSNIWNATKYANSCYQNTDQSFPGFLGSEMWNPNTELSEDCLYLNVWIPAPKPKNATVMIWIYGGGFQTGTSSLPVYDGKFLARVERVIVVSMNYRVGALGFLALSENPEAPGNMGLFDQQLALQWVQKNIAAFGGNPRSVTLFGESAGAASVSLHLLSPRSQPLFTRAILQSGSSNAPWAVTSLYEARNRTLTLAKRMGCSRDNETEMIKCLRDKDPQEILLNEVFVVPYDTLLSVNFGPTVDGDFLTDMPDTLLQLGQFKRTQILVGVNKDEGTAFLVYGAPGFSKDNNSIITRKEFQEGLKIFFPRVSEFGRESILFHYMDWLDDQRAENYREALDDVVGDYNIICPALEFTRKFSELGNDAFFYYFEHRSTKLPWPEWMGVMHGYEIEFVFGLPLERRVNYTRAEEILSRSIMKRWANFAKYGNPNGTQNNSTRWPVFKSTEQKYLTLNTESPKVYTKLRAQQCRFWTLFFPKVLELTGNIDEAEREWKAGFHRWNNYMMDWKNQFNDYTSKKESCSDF
# Test: not given
# Conditions: not given
row,SMILES,IC50 [µM]
1,COc1ccc2nc3c(c(NCCCCCCN(CC(=O)NCCc4c[nH]c5ccc(OC)cc45)C(=O)/C=C/c4ccc(O)c(OC)c4)c2c1)CCCC3,0.00297
2,COc1ccc2nc3c(c(NCCCCCCCCN(CC(=O)NCCc4c[nH]c5ccc(OC)cc45)C(=O)/C=C/c4ccc(O)c(OC)c4)c2c1)CCCC3,0.012

# Target: T1, Nuclear factor erythroid 2-related factor 2 (Homo sapiens)
# Test: Activation of NRF2 in human MCF-7/AREc32 cells assessed as concentration required to double Nrf2 transcriptional pathway by measuring specific luciferase reporter activity incubated for 24 hrs by luciferase reporter gene assay
# Format: cell-based
# Conditions: MCF7, filed as activator
row,SMILES,CD [µM]
1,COc1ccc2nc3c(c(NCCCCCCN(CC(=O)NCCc4c[nH]c5ccc(OC)cc45)C(=O)/C=C/c4ccc(O)c(OC)c4)c2c1)CCCC3,10.9
2,COc1ccc2nc3c(c(NCCCCCCCCN(CC(=O)NCCc4c[nH]c5ccc(OC)cc45)C(=O)/C=C/c4ccc(O)c(OC)c4)c2c1)CCCC3,5.99

# Tested on: not listed separately
# Test: in vitro
# Conditions: human, HepG2 cells
# Description: Toxicity in human HepG2 cells assessed as cell viability at 1000 uM by MTT assay relative to control
row,SMILES,viability at 1000 µM [%]
1,COc1ccc2nc3c(c(NCCCCCCN(CC(=O)NCCc4c[nH]c5ccc(OC)cc45)C(=O)/C=C/c4ccc(O)c(OC)c4)c2c1)CCCC3,56.5
2,COc1ccc2nc3c(c(NCCCCCCCCN(CC(=O)NCCc4c[nH]c5ccc(OC)cc45)C(=O)/C=C/c4ccc(O)c(OC)c4)c2c1)CCCC3,54.4

# Tested on: SH-SY5Y
# Test: Neuroprotection in human SH-SY5Y cells assessed as reduction in Rotenone/Oligomycin A -induced cell death at 1 uM incubated for 24 hrs by MTT assay
# Format: functional
# Set-up: scale not given: the % may be the effect or the level left
# Conditions: not given
row,SMILES,Activity [%]
1,COc1ccc2nc3c(c(NCCCCCCN(CC(=O)NCCc4c[nH]c5ccc(OC)cc45)C(=O)/C=C/c4ccc(O)c(OC)c4)c2c1)CCCC3,39.2
2,COC(=O)/C=C/c1ccc(O)c(OC)c1,23.8
3,COc1ccc2nc3c(c(NCCCCCCCCN(CC(=O)NCCc4c[nH]c5ccc(OC)cc45)C(=O)/C=C/c4ccc(O)c(OC)c4)c2c1)CCCC3,59.6

# Tested on: SH-SY5Y
# Test: Neuroprotection in human SH-SY5Y cells assessed as reduction in Rotenone/Oligomycin A -induced cell death at 3 uM incubated for 24 hrs by MTT assay
# Format: functional
# Set-up: scale not given: the % may be the effect or the level left
# Conditions: not given
row,SMILES,Activity [%]
1,COc1ccc2nc3c(c(NCCCCCCN(CC(=O)NCCc4c[nH]c5ccc(OC)cc45)C(=O)/C=C/c4ccc(O)c(OC)c4)c2c1)CCCC3,29.2
2,COC(=O)/C=C/c1ccc(O)c(OC)c1,21.3
3,COc1ccc2nc3c(c(NCCCCCCCCN(CC(=O)NCCc4c[nH]c5ccc(OC)cc45)C(=O)/C=C/c4ccc(O)c(OC)c4)c2c1)CCCC3,48

# Tested on: not listed separately
# Test: in vitro
# Conditions: human, HepG2 cells
# Remark: another data set of the same source
# Description: Toxicity in human HepG2 cells assessed as cell viability at 300 uM by MTT assay relative to control
row,SMILES,viability at 300 µM [%]
1,COc1ccc2nc3c(c(NCCCCCCN(CC(=O)NCCc4c[nH]c5ccc(OC)cc45)C(=O)/C=C/c4ccc(O)c(OC)c4)c2c1)CCCC3,67.6
2,COc1ccc2nc3c(c(NCCCCCCCCN(CC(=O)NCCc4c[nH]c5ccc(OC)cc45)C(=O)/C=C/c4ccc(O)c(OC)c4)c2c1)CCCC3,56

# Tested on: SH-SY5Y
# Test: Neuroprotection in human SH-SY5Y cells assessed as reduction in beta-amyloid peptide (1-42)-induced cell death at 1 uM incubated for 24 hrs by MTT assay
# Format: functional
# Set-up: scale not given: the % may be the effect or the level left
# Conditions: not given
row,SMILES,Activity [%]
1,COc1ccc2nc3c(c(NCCCCCCN(CC(=O)NCCc4c[nH]c5ccc(OC)cc45)C(=O)/C=C/c4ccc(O)c(OC)c4)c2c1)CCCC3,85.1
2,COC(=O)/C=C/c1ccc(O)c(OC)c1,40.7
3,COc1ccc2nc3c(c(NCCCCCCCCN(CC(=O)NCCc4c[nH]c5ccc(OC)cc45)C(=O)/C=C/c4ccc(O)c(OC)c4)c2c1)CCCC3,28

# Tested on: SH-SY5Y
# Test: Neuroprotection in human SH-SY5Y cells assessed as reduction in H2O2-induced cell death at 3 uM incubated for 24 hrs by MTT assay
# Format: functional
# Set-up: scale not given: the % may be the effect or the level left
# Conditions: not given
row,SMILES,Activity
1,COc1ccc2nc3c(c(NCCCCCCN(CC(=O)NCCc4c[nH]c5ccc(OC)cc45)C(=O)/C=C/c4ccc(O)c(OC)c4)c2c1)CCCC3,42.8%
2,COC(=O)/C=C/c1ccc(O)c(OC)c1,56.9%
3,COc1ccc2nc3c(c(NCCCCCCCCN(CC(=O)NCCc4c[nH]c5ccc(OC)cc45)C(=O)/C=C/c4ccc(O)c(OC)c4)c2c1)CCCC3,inactive

# Tested on: not listed separately
# Test: Effective permeability at 100 uM after 3 to 6 hrs by PAMPA assay
# Format: ADME
# Conditions: time 3-6 hrs, read-out: Peff
row,SMILES,Papp at 100 µM [nm/s]
1,COc1ccc2nc3c(c(NCCCCCCN(CC(=O)NCCc4c[nH]c5ccc(OC)cc45)C(=O)/C=C/c4ccc(O)c(OC)c4)c2c1)CCCC3,22
2,COc1ccc2nc3c(c(NCCCCCCCCN(CC(=O)NCCc4c[nH]c5ccc(OC)cc45)C(=O)/C=C/c4ccc(O)c(OC)c4)c2c1)CCCC3,18

# Target: Cholinesterase (Homo sapiens, UniProt P06276)
# Sequence (P06276 whole entry): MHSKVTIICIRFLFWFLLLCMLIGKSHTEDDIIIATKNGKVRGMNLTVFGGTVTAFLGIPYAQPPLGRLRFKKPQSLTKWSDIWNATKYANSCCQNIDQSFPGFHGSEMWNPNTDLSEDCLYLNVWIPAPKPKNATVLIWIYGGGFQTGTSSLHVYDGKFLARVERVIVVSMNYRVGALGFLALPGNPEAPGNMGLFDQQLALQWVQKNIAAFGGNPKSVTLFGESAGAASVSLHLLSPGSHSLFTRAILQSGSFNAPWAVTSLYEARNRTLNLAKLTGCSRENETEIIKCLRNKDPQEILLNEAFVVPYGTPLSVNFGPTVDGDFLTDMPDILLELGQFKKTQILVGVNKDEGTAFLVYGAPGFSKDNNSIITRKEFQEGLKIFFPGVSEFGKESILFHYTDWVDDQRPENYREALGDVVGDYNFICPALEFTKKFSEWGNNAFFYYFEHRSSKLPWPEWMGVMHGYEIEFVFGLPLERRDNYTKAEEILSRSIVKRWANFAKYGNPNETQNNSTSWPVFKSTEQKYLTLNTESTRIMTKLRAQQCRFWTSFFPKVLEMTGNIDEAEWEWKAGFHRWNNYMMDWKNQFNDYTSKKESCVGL
# Test: Inhibition of BuChE in human erythrocyte hemo-lyzates pre-incubated for 5 mins before addition of butyrylthiocholine iodide substrate by Ellman's method
# Format: tissue-based
# Conditions: not given
row,SMILES,IC50 [µM]
1,COc1ccc2nc3c(c(NCCCCCCN(CC(=O)NCCc4c[nH]c5ccc(OC)cc45)C(=O)/C=C/c4ccc(O)c(OC)c4)c2c1)CCCC3,0.358
2,COc1ccc2nc3c(c(NCCCCCCCCN(CC(=O)NCCc4c[nH]c5ccc(OC)cc45)C(=O)/C=C/c4ccc(O)c(OC)c4)c2c1)CCCC3,0.336

# Tested on: SH-SY5Y
# Test: Neuroprotection in human SH-SY5Y cells assessed as reduction in beta-amyloid peptide (1-40)-induced cell death at 3 uM incubated for 24 hrs by MTT assay
# Format: functional
# Conditions: not given
row,SMILES,Activity
1,COc1ccc2nc3c(c(NCCCCCCN(CC(=O)NCCc4c[nH]c5ccc(OC)cc45)C(=O)/C=C/c4ccc(O)c(OC)c4)c2c1)CCCC3,inactive
2,COC(=O)/C=C/c1ccc(O)c(OC)c1,53.9%
3,COc1ccc2nc3c(c(NCCCCCCCCN(CC(=O)NCCc4c[nH]c5ccc(OC)cc45)C(=O)/C=C/c4ccc(O)c(OC)c4)c2c1)CCCC3,35.1%

# Tested on: SH-SY5Y
# Test: Neuroprotection in human SH-SY5Y cells assessed as reduction in H2O2-induced cell death at 1 uM incubated for 24 hrs by MTT assay
# Format: functional
# Set-up: scale not given: the % may be the effect or the level left
# Conditions: not given
row,SMILES,Activity [%]
1,COc1ccc2nc3c(c(NCCCCCCN(CC(=O)NCCc4c[nH]c5ccc(OC)cc45)C(=O)/C=C/c4ccc(O)c(OC)c4)c2c1)CCCC3,22.9
2,COC(=O)/C=C/c1ccc(O)c(OC)c1,51.1
3,COc1ccc2nc3c(c(NCCCCCCCCN(CC(=O)NCCc4c[nH]c5ccc(OC)cc45)C(=O)/C=C/c4ccc(O)c(OC)c4)c2c1)CCCC3,35.9

# Tested on: SH-SY5Y
# Test: Neuroprotection in human SH-SY5Y cells assessed as reduction in beta-amyloid peptide (1-40)-induced cell death at 1 uM incubated for 24 hrs by MTT assay
# Format: functional
# Set-up: scale not given: the % may be the effect or the level left
# Conditions: not given
row,SMILES,Activity [%]
1,COc1ccc2nc3c(c(NCCCCCCN(CC(=O)NCCc4c[nH]c5ccc(OC)cc45)C(=O)/C=C/c4ccc(O)c(OC)c4)c2c1)CCCC3,12
2,COC(=O)/C=C/c1ccc(O)c(OC)c1,27.8
3,COc1ccc2nc3c(c(NCCCCCCCCN(CC(=O)NCCc4c[nH]c5ccc(OC)cc45)C(=O)/C=C/c4ccc(O)c(OC)c4)c2c1)CCCC3,56.3

# Tested on: not listed separately
# Test: in vitro
# Conditions: human, HepG2 cells
# Remark: another data set of the same source
# Description: Toxicity in human HepG2 cells assessed as cell viability at 100 uM by MTT assay relative to control
row,SMILES,viability at 100 µM [%]
1,COc1ccc2nc3c(c(NCCCCCCN(CC(=O)NCCc4c[nH]c5ccc(OC)cc45)C(=O)/C=C/c4ccc(O)c(OC)c4)c2c1)CCCC3,70.3
2,COc1ccc2nc3c(c(NCCCCCCCCN(CC(=O)NCCc4c[nH]c5ccc(OC)cc45)C(=O)/C=C/c4ccc(O)c(OC)c4)c2c1)CCCC3,61

# Target: Acetylcholinesterase (Electrophorus electricus, UniProt O42275)
# Sequence (O42275 whole entry): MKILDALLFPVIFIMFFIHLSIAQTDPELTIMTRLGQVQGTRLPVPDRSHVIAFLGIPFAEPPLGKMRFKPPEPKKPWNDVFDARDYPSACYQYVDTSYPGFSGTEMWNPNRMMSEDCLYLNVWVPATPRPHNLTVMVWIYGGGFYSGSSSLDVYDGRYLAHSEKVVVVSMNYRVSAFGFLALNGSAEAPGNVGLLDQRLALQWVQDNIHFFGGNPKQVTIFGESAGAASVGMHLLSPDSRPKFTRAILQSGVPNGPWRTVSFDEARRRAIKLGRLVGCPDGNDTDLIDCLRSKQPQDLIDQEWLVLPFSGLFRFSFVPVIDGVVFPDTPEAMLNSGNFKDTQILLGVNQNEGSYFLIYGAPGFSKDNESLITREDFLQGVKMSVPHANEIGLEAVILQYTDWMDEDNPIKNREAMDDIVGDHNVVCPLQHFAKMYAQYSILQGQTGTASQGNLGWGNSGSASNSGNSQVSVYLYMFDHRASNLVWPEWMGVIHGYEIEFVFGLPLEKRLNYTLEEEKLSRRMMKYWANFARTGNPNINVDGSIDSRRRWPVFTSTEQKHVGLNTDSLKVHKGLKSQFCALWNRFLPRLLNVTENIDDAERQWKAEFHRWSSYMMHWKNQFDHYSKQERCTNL
# Test: Inhibition of Electrophorus electricus AChE pre-incubated for 10 mins before addition of acetylthiocholine iodide substrate and further incubated for 15 mins by Ellman's method
# Conditions: not given
row,SMILES,IC50 [µM]
1,COc1ccc2nc3c(c(NCCCCCCN(CC(=O)NCCc4c[nH]c5ccc(OC)cc45)C(=O)/C=C/c4ccc(O)c(OC)c4)c2c1)CCCC3,0.0178
2,COc1ccc2nc3c(c(NCCCCCCCCN(CC(=O)NCCc4c[nH]c5ccc(OC)cc45)C(=O)/C=C/c4ccc(O)c(OC)c4)c2c1)CCCC3,0.0297
